Experimental data from paper PMC7899551, “Phase 1 study of Z-endoxifen in patients with advanced gynecologic, desmoid, and hormone receptor-positive solid tumors” (Oncotarget, 2021).
Where two headings read alike, the source gives them in different places.

Assay: Plasma pharmacokinetics of Z-endoxifen (HPLC assay, non-compartmental analysis)
Type: in vivo, human
Settings: human, plasma, po
Description: This was an open-label trial of Z-endoxifen in patients with advanced solid tumors (https://clinicaltrials.gov/ identifier: NCT01273168). Z-endoxifen-HCl was supplied by the Pharmaceutical Management Branch, National Cancer Institute, as 20 and 40 mg capsules; agent was administered orally once daily on a continuous schedule in 28-day cycles with a starting dose of 20 mg/day taken either 1 hour before or 2 hours after meals. Dose escalation followed a traditional 3+3 design in which patients were dose-escalated to the next dose level (DL) in cohorts of 3 patients until dose-limiting toxicity (DLT) was observed. DLT was defined as an adverse event that occurred during cycle 1, was thought to be related to study drug administration, and met one of the following criteria: grade ≥ 3 non-hematologic toxicities (except diarrhea, nausea and vomiting, alopecia, rising creatinine or electrolyte toxicities that resolved within 24 hours, or intolerable estrogen withdrawal symptoms) or grade ≥ 3 hematologic toxicities (except neutropenia lasting less than 5 days, lymphopenia, or anemia). Eight dose levels (DL1-8) were examined: 20, 40, 60, 100, 140, 200, 280, and 360 mg, respectively. Two patients at DL8 received the free base form of Z-endoxifen on day 1 rather than the hydrochloride salt to assess the pharmacokinetics of that formulation.
A 3-mL blood sample was collected in a K2 EDTA tube on day 1 of cycle 1 before drug administration and at the following times post-first dose: 0.5, 1, 2, 3, 4, 6, 8, and 24 hours. Samples were collected at the same time points on day 28 of cycle 1 for DL1-6 until a protocol amendment eliminated the requirement for these samples at the higher dose levels. Samples were wrapped in aluminum foil after collection to protect from light exposure. A 10-mL aliquot of urine was collected before agent administration on cycle 1 day 1, for 24 hours after dosing on day 1, and before drug administration on cycle 2 day 1; samples were refrigerated prior to analysis.
Plasma and urine concentrations of Z- and E-endoxifen were measured using a validated, post-column fluorescence derivatization HPLC assay. Non-compartmental pharmacokinetic parameters were calculated using WinNonlin version 7.0 (Pharsight Corp., Mountainview, CA, USA). A 2 μM Cmax target was established for day 28 plasma concentration. The amount of Z-endoxifen excreted in urine was measured over a 24-hour collection period.

CC/C(=C(\c1ccc(O)cc1)c1ccc(OCCNC)cc1)c1ccccc1 [Z-endoxifen]
Cmax (20 mg/day, DL1 20 mg/day oral, day 28, mean, read-out: Cmax, Mean): 0.286 µg/mL | Tmax (20 mg/day, DL1 20 mg/day oral, day 28, mean, read-out: Tmax, Mean): 0.7 h | AUC(0-t) (40 mg, DL2 40 mg oral, day 1, individual patients, read-out: AUC(0-24h)): 1.29 µg·h/mL | Cmax (40 mg, DL2 40 mg oral, day 1, individual patients, read-out: Cmax): 0.0836 µg/mL | AUC(0-t) (40 mg, DL2 40 mg oral, day 1, mean, read-out: AUC(0-24h), Mean): 1.65 µg·h/mL | concentration at 24 h (40 mg, DL2 40 mg oral, day 1, mean, read-out: C24h, Mean): 0.0525 µg/mL | Cmax (40 mg, DL2 40 mg oral, day 1, mean, read-out: Cmax, Mean): 0.112 µg/mL | AUC(0-t) (40 mg/day, DL2 40 mg/day oral, day 28, individual patients, read-out: AUC(0-24h)): 5.57 µg·h/mL | half-life (40 mg/day, DL2 40 mg/day oral, day 28, individual patients, read-out: Adjusted Half-Life (converted)): 39.3 h | concentration at 24 h (40 mg/day, DL2 40 mg/day oral, day 28, individual patients, read-out: C24h): 0.136 µg/mL | Cmax (40 mg/day, DL2 40 mg/day oral, day 28, individual patients, read-out: Cmax): 0.321 µg/mL | AUC(0-t) (40 mg/day, DL2 40 mg/day oral, day 28, mean, read-out: AUC(0-24h), Mean): 4.76 µg·h/mL | concentration at 24 h (40 mg/day, DL2 40 mg/day oral, day 28, mean, read-out: C24h, Mean): 0.147 µg/mL | Cmax (40 mg/day, DL2 40 mg/day oral, day 28, mean, read-out: Cmax, Mean): 0.258 µg/mL | Tmax (40 mg/day, DL2 40 mg/day oral, day 28, mean, read-out: Tmax, Mean): 3.3 h | AUC(0-t) (60 mg, DL3 60 mg oral, day 1, individual patients, read-out: AUC(0-24h)): 1.62 µg·h/mL | concentration at 24 h (60 mg, DL3 60 mg oral, day 1, individual patients, read-out: C24h): 0.0897 µg/mL | Cmax (60 mg, DL3 60 mg oral, day 1, individual patients, read-out: Cmax): 0.0897 µg/mL | AUC(0-t) (60 mg, DL3 60 mg oral, day 1, mean, read-out: AUC(0-24h), Mean): 2.14 µg·h/mL | concentration at 24 h (60 mg, DL3 60 mg oral, day 1, mean, read-out: C24h, Mean): 0.0827 µg/mL | Cmax (60 mg, DL3 60 mg oral, day 1, mean, read-out: Cmax, Mean): 0.122 µg/mL | Tmax (60 mg, DL3 60 mg oral, day 1, mean, read-out: Tmax, Mean): 12 h | AUC(0-t) (60 mg/day, DL3 60 mg/day oral, day 28, mean, read-out: AUC(0-24h), Mean): 8.08 µg·h/mL | concentration at 24 h (60 mg/day, DL3 60 mg/day oral, day 28, mean, read-out: C24h, Mean): 0.345 µg/mL | Cmax (60 mg/day, DL3 60 mg/day oral, day 28, mean, read-out: Cmax, Mean): 0.417 µg/mL | Tmax (60 mg/day, DL3 60 mg/day oral, day 28, mean, read-out: Tmax, Mean): 10.8 h | AUC(0-t) (100 mg, DL4 100 mg oral, day 1, individual patients, read-out: AUC(0-24h)): 4.64 µg·h/mL | concentration at 24 h (100 mg, DL4 100 mg oral, day 1, individual patients, read-out: C24h): 0.133 µg/mL | Cmax (100 mg, DL4 100 mg oral, day 1, individual patients, read-out: Cmax): 0.264 µg/mL | Tmax (100 mg, DL4 100 mg oral, day 1, individual patients, read-out: Tmax): 1 h | AUC(0-t) (100 mg, DL4 100 mg oral, day 1, mean, read-out: AUC(0-24h), Mean): 5 µg·h/mL | concentration at 24 h (100 mg, DL4 100 mg oral, day 1, mean, read-out: C24h, Mean): 0.155 µg/mL | Cmax (100 mg, DL4 100 mg oral, day 1, mean, read-out: Cmax, Mean): 0.296 µg/mL | Tmax (100 mg, DL4 100 mg oral, day 1, mean, read-out: Tmax, Mean): 4.3 h | AUC(0-t) (100 mg/day, DL4 100 mg/day oral, day 28, individual patients, read-out: AUC(0-24h)): 13.3 µg·h/mL | half-life (100 mg/day, DL4 100 mg/day oral, day 28, individual patients, read-out: Adjusted Half-Life (converted)): 36.8 h | concentration at 24 h (100 mg/day, DL4 100 mg/day oral, day 28, individual patients, read-out: C24h): 0.428 µg/mL | Cmax (100 mg/day, DL4 100 mg/day oral, day 28, individual patients, read-out: Cmax): 1.3 µg/mL | Tmax (100 mg/day, DL4 100 mg/day oral, day 28, individual patients, read-out: Tmax): 2 h | AUC(0-t) (100 mg/day, DL4 100 mg/day oral, day 28, mean (one patient), read-out: AUC(0-24h), Mean): 13.3 µg·h/mL | half-life (100 mg/day, DL4 100 mg/day oral, day 28, mean (one patient), read-out: Adjusted Half-Life, Mean (converted)): 36.8 h | concentration at 24 h (100 mg/day, DL4 100 mg/day oral, day 28, mean (one patient), read-out: C24h, Mean): 0.428 µg/mL | Cmax (100 mg/day, DL4 100 mg/day oral, day 28, mean, read-out: Cmax, Mean): 1.01 µg/mL | Tmax (140 mg, DL5 140 mg oral, day 1, individual patients, read-out: Tmax): 3 h | AUC(0-t) (140 mg, DL5 140 mg oral, day 1, mean, read-out: AUC(0-24h), Mean): 9.76 µg·h/mL | concentration at 24 h (140 mg, DL5 140 mg oral, day 1, mean, read-out: C24h, Mean): 0.311 µg/mL | Cmax (140 mg, DL5 140 mg oral, day 1, mean, read-out: Cmax, Mean): 0.61 µg/mL | Tmax (140 mg, DL5 140 mg oral, day 1, mean, read-out: Tmax, Mean): 4.3 h | AUC(0-t) (140 mg/day, DL5 140 mg/day oral, day 28, individual patients, read-out: AUC(0-24h)): 18.2 µg·h/mL | half-life (140 mg/day, DL5 140 mg/day oral, day 28, individual patients, read-out: Adjusted Half-Life (converted)): 33.1 h | concentration at 24 h (140 mg/day, DL5 140 mg/day oral, day 28, individual patients, read-out: C24h): 0.598 µg/mL | Cmax (140 mg/day, DL5 140 mg/day oral, day 28, individual patients, read-out: Cmax): 0.973 µg/mL | Tmax (140 mg/day, DL5 140 mg/day oral, day 28, individual patients, read-out: Tmax): 1 h | AUC(0-t) (140 mg/day, DL5 140 mg/day oral, day 28, mean, read-out: AUC(0-24h), Mean): 17.4 µg·h/mL | half-life (140 mg/day, DL5 140 mg/day oral, day 28, mean, read-out: Adjusted Half-Life, Mean (converted)): 30.6 h | concentration at 24 h (140 mg/day, DL5 140 mg/day oral, day 28, mean, read-out: C24h, Mean): 0.563 µg/mL | Cmax (140 mg/day, DL5 140 mg/day oral, day 28, mean, read-out: Cmax, Mean): 1.11 µg/mL | AUC(0-t) (200 mg, DL6 200 mg oral, day 1, individual patients, read-out: AUC(0-24h)): 6.34 µg·h/mL | concentration at 24 h (200 mg, DL6 200 mg oral, day 1, individual patients, read-out: C24h): 0.279 µg/mL | Tmax (200 mg, DL6 200 mg oral, day 1, individual patients, read-out: Tmax): 2 h | AUC(0-t) (200 mg, DL6 200 mg oral, day 1, mean, read-out: AUC(0-24h), Mean): 9.22 µg·h/mL | concentration at 24 h (200 mg, DL6 200 mg oral, day 1, mean, read-out: C24h, Mean): 0.336 µg/mL | Cmax (200 mg, DL6 200 mg oral, day 1, mean, read-out: Cmax, Mean): 0.517 µg/mL | half-life (200 mg/day, DL6 200 mg/day oral, day 28, individual patients, read-out: Adjusted Half-Life (converted)): 34.8 h | AUC(0-t) (200 mg/day, DL6 200 mg/day oral, day 28, mean, read-out: AUC(0-24h), Mean): 30.8 µg·h/mL | concentration at 24 h (200 mg/day, DL6 200 mg/day oral, day 28, mean, read-out: C24h, Mean): 1.07 µg/mL | Cmax (200 mg/day, DL6 200 mg/day oral, day 28, mean, read-out: Cmax, Mean): 1.64 µg/mL | Cmax (280 mg, DL7 280 mg oral, day 1, individual patients, read-out: Cmax): 0.888 µg/mL | Tmax (280 mg, DL7 280 mg oral, day 1, individual patients, read-out: Tmax): 3 h | AUC(0-t) (280 mg, DL7 280 mg oral, day 1, mean, read-out: AUC(0-24h), Mean): 15 µg·h/mL | concentration at 24 h (280 mg, DL7 280 mg oral, day 1, mean, read-out: C24h, Mean): 0.468 µg/mL | Cmax (280 mg, DL7 280 mg oral, day 1, mean, read-out: Cmax, Mean): 0.93 µg/mL | Tmax (360 mg, DL8 360 mg oral, day 1, individual patients, read-out: Tmax): 2 h | AUC(0-t) (360 mg, DL8 360 mg oral, day 1, mean (excluding patients 35 and 36), read-out: AUC(0-24h), Mean): 20.5 µg·h/mL | concentration at 24 h (360 mg, DL8 360 mg oral, day 1, mean (excluding patients 35 and 36), read-out: C24h, Mean): 0.676 µg/mL | Cmax (360 mg, DL8 360 mg oral, day 1, mean (excluding patients 35 and 36), read-out: Cmax, Mean): 1.31 µg/mL | Tmax (360 mg, DL8 360 mg oral, day 1, mean (excluding patients 35 and 36), read-out: Tmax, Mean): 3.9 h | AUC(0-t) (360 mg, HCl salt, 360 mg oral, day 2 (after free base on day 1), mean of patients 35 and 36, read-out: AUC(0–24 h), Mean): 41.6 µg·h/mL | concentration at 24 h (360 mg, HCl salt, 360 mg oral, day 2 (after free base on day 1), mean of patients 35 and 36, read-out: C24 h, Mean): 1.47 µg/mL | concentration at 24 h (360 mg, HCl salt, 360 mg oral, day 2 (after free base on day 1), patients 35 and 36 individually, read-out: C24 h): 0.827 µg/mL
